Results as given in patent publication US11773096B2, “Small-molecule PI5P4K alpha/beta inhibitors and methods of treatment using same” (YALE UNIVERSITY, priority 2018, dated 2023).
pKi: −log10 of the molar value.

Tests used:
AMPK = test: Western blot of ACC phosphorylation by AMPK in myotubes (FIG. 3F); format: cell-based
Procedure: (§1) After wash with cold DPBS buffer, cells were lysed in RIPA buffer that contained 50 mM Tris-HCl pH 8.0, 150 mM NaCl, 1 mM EDTA, 1 mM EGTA, 1% NP-40, 0.5% sodium deoxycholate, 0.1% SDS, and protease and phosphatase inhibitor cocktails (Roche). Total protein concentrations were measured using a BCA assay (Thermo scientific). Cell lysate (about 80 μg protein) was resolved by SDS-PAGE and blotted onto PVDF membranes. The membranes were probed overnight at 4° C. with appropriate primary antibodies (Cell Signaling Technology) and incubated with secondary fluorescent antibodies (LI-COR Biosciences) for 1 hr at room temperature before imaging by an Odyssey CLx system.

BT474 cells [1] = test: Immunoblot analysis in BT474 cells; format: cell-based
Procedure: as §1

C2Cl2 myotubes [2] = test: Immunoblot analysis of signaling in C2Cl2 myotubes; format: cell-based, mouse
Procedure: (§2) BT-474 and MCF7 breast cancer cells, C2Cl2 mouse myoblast cells, and HEK 293T cells were maintained in high-glucose DMEM medium containing 10% FBS. L6 rat myoblast cells were maintained in α-MEM medium containing 10% FBS. For differentiation into myotubes, C2Cl2 cells were kept in DMEM medium containing 2% horse serum for 5 days, and L6 cells were kept in α-MEM medium containing 2% FBS for 7 days. Amino-acid-free DMEM medium was prepared using powder from USBio, and MEM amino acids solution was from Gibco. Media were all supplemented with 100 U/ml penicillin/streptomycin. Cell lines were purchased from ATCC.
as §1

c-MER = c-MER (Homo sapiens, UniProt Q12866); test: HotSpot protein kinase panel; settings: read-out: c-MER activity remaining
mTOR/FRAP1 = mTOR/FRAP1 (Homo sapiens, UniProt P42345); test: In vitro kinase profiling; format: biochemical
RSK2 [3] = biological target: T1, RSK2 (Homo sapiens, UniProt P51812); test: RSK2 kinase assay kit (Promega, ADP-Glo)
Text: (§3) The assay kits for Plk1 and RSK2 were obtained from Promega (Madison, Wis.), which use ADP-Glo™ for activity detection.

PI4P5Kα = PI4P5Kα (Homo sapiens, UniProt Q99755); test: Lipid kinase assay / panel (ADP-Glo)
Text: as §3

PLK2 = PLK2 (Homo sapiens, UniProt Q9NYY3); test: HotSpot protein kinase panel; settings: read-out: PLK2 activity remaining
Procedure: (§4) In both titrations, the ATP concentration was fixed at 50 μM. The assay kits for Plk1 and RSK2 were obtained from Promega (Madison, Wis.), which use ADP-Glo™ for activity detection.

Vps34 = Vps34 (Homo sapiens, UniProt Q8NEB9); test: In vitro lipid kinase profiling
[4] = test system: panel of 14 lipid kinases; test: Lipid kinase panel (ADP-Glo), panel as a whole; settings: compound 0.5 μM, ATP 10 μM
Procedure: In both titrations, the ATP concentration was fixed at 50 μM.

BT474 cells [5] = test: Cell cycle analysis by flow cytometry; format: cell-based
Procedure: To monitor cell cycle progression, cells were harvested by trypsinization, washed with DPBS, and fixed with cold 70% ethanol for 30 min at 4° C. Before analysis, 2×10^6 cells were washed with DPBS three times and treated with 100 μl 100 μg/ml ribonuclease (DNase-free; Sigma Aldrich) for 10 min at room temperature. Samples were then stained for total DNA using 400 μl DPBS containing 50 μg/ml propidium iodide (Invitrogen). Cell cycle distribution was analyzed by a BD LSR II flow cytometer.

L6 myotubes = test: Immunoblot analysis of ACC phosphorylation in L6 myotubes; format: cell-based, rat; settings: dose-dependent
Procedure: as §2, §1

Plk1 [6] = biological target: T2, Plk1 (Homo sapiens, UniProt P53350); test: HotSpot protein kinase panel; settings: read-out: Plk1 activity remaining
Procedure: as §4

RSK2 [7] = biological target: T1, RSK2; test: HotSpot protein kinase panel; settings: read-out: RSK2 activity remaining
Procedure: as §4

MCF10A p53(−/−) cells = test: Cell death upon serum withdrawal, trypan blue staining; format: cell-based
Procedure: However, the difference is lost when EGF is added to the culture media. […] FIG. 17C: Cell death upon serum withdrawal is measured by trypan blue staining. p53(−/−) Cells are more susceptible to metabolic perturbations caused by glucose starvation.

C2Cl2 myotubes [8] = test: Adenine nucleotides measurement in myotubes (luminescent ATP kit, HPLC, LC-MS/MS); format: cell-based, mouse
Procedure: C2Cl2 cells were plated and differentiated on the same type of plates. After treatment with compound overnight, total cellular ATP levels were measured by a luminescent ATP detection assay kit (Abcam) following manufacturer's protocol and normalized against the total protein concentration.
To measure nucleotide concentration using HPLC or LC-MS/MS, cells were rinsed three times with DPBS buffer at room temperature and lysed in ice-cold 0.4M perchloric acid (500 μl acid per 10^6 cells). The culture dishes were sealed and transferred to a −80° C. freezer. Cell lysates were then thawed on ice, scraped off, and centrifuged at 14,000 rpm at 4° C. for 10 min. The pellet was solubilized in 0.2M NaOH and set aside for measurement of protein concentration. The supernatant was transferred to clean tubes and neutralized with 3M KHCO3. The neutralized sample was kept on ice for 10 min and then transferred to a −80° C. freezer. After 2 hrs, thawed sample was centrifuged again to remove the precipitated perchlorate, filtered, adjusted according to protein concentration, aliquoted and stored at −80° C. The sample was thawed on ice just before the HPLC or LC-MS/MS experiment. […] The nucleotides were separated using 20 mM ammonium acetate in water (solvent A) and 5% acetonitrile in water buffered with 20 mM ammonium acetate (solvent B), which were both adjusted with ammonium hydroxide to pH 9.0. The flow rate was 0.7 mL/min, and the column temperature was maintained at 35° C. The gradient elution program was: 0-2 min, 0-5% B; 2-12 min, 5-10% B; 12-22 min, 10-20% B; 22-25 min, 20-100% B; 25-30 min, 100% B, and then back to 100% A for 1 min, which was maintained for another 9 min to recondition the column. Mass spectrometric ESI ionization was performed in the negative ion mode and the source parameters were set as follows: gas temperature, 200° C.; gas flow, 12 L/min; nebulizer pressure, 35 psi; sheath gas temperature, 200° C.; sheath gas flow, 12 L/min; capillary voltage, −4,000V; fragmentor voltage, 380V.

EIF2AK3 = EIF2AK3 (Homo sapiens, UniProt Q9NZJ5); test: HotSpot protein kinase panel; settings: read-out: EIF2AK3 activity remaining
p110α/p85α = p110α/p85α (Homo sapiens, UniProt P42336); test: In vitro lipid kinase profiling
PI4P5Kγ = PI4P5Kγ (Homo sapiens, UniProt O60331); test: Lipid kinase panel (ADP-Glo); settings: read-out: PI4P5Kγ activity remaining
MCF7 cells = test: Immunoblot analysis of AMPK activation in MCF7 cells; format: cell-based
Procedure: as §1

NEK1 = NEK1 (Homo sapiens, UniProt Q96PY6); test: HotSpot protein kinase panel; settings: read-out: NEK1 activity remaining
NEK11 = NEK11 (Homo sapiens, UniProt Q8NG66); test: HotSpot protein kinase panel; settings: read-out: NEK11 activity remaining
Plk1 [9] = biological target: T2, Plk1; test: Plk1 kinase assay kit (Promega, ADP-Glo); settings: ATP 50 μM
Procedure: as §4

T1 sequence (P51812 whole entry): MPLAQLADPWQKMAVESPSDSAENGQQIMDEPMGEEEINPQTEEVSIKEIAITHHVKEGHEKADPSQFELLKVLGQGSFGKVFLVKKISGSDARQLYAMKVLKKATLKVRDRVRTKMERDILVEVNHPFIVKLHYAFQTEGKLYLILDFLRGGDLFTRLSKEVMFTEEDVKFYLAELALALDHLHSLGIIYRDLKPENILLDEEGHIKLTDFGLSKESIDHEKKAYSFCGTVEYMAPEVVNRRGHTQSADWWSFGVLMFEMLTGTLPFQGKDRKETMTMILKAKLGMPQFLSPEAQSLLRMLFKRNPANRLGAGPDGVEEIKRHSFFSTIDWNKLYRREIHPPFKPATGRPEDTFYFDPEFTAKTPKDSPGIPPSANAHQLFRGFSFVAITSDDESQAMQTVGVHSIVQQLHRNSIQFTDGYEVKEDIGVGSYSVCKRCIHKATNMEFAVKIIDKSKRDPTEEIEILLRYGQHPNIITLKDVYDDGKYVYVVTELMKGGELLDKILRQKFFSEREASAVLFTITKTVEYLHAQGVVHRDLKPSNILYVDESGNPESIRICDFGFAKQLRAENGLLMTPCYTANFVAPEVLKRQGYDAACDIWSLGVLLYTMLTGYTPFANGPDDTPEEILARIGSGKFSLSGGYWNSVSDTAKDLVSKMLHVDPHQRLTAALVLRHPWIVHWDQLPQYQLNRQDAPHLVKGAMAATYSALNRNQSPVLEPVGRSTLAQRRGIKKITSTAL
T2 sequence (P53350 whole entry): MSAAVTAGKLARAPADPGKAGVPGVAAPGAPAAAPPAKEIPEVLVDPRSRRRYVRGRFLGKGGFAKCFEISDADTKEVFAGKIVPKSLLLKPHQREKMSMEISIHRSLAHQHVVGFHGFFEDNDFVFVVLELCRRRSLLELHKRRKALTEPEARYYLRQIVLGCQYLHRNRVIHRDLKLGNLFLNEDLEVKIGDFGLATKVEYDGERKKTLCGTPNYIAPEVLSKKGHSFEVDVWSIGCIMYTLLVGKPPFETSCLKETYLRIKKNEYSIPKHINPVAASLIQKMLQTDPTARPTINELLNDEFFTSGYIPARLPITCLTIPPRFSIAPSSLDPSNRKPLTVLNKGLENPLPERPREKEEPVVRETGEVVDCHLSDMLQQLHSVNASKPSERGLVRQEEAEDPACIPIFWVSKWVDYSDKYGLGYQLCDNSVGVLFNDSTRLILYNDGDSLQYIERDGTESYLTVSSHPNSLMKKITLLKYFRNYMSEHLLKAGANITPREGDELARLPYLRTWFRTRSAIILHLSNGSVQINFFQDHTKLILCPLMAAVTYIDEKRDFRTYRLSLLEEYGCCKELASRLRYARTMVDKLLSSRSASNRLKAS
Sequence of PI4P5Kα (Q99755 whole entry): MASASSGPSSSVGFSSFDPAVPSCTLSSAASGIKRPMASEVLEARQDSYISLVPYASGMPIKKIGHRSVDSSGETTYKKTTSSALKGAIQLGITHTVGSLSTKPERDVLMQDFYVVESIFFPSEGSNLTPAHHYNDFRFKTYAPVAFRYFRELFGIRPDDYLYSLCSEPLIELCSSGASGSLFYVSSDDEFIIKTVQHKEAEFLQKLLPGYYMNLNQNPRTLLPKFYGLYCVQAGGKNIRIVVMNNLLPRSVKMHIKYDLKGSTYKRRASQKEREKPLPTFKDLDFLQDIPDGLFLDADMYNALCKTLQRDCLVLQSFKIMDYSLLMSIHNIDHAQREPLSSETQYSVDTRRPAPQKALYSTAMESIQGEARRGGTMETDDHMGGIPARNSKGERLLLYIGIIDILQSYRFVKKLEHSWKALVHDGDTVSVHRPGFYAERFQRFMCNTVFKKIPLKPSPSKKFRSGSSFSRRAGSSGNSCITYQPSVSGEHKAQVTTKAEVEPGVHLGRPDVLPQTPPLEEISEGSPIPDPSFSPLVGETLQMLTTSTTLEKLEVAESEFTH
Sequence of PI4P5Kγ (O60331 whole entry): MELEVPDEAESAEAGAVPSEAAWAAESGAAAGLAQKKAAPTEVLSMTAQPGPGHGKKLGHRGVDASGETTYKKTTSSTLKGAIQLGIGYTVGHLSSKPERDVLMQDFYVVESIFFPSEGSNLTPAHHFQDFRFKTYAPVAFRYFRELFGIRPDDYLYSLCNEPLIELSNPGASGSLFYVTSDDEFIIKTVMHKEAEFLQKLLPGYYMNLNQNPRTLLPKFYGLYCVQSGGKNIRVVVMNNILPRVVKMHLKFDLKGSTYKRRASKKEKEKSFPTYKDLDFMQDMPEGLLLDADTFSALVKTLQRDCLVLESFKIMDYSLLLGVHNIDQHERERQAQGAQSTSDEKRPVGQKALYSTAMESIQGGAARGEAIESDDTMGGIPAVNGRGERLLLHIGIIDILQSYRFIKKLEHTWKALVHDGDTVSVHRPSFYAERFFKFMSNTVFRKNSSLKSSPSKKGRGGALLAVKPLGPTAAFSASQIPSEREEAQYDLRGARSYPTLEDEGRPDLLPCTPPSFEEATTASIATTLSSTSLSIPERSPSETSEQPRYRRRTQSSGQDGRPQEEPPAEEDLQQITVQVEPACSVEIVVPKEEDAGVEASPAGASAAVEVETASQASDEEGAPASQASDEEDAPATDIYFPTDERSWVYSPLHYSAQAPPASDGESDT
Sequence of p110α/p85α (P42336 whole entry, species assumed): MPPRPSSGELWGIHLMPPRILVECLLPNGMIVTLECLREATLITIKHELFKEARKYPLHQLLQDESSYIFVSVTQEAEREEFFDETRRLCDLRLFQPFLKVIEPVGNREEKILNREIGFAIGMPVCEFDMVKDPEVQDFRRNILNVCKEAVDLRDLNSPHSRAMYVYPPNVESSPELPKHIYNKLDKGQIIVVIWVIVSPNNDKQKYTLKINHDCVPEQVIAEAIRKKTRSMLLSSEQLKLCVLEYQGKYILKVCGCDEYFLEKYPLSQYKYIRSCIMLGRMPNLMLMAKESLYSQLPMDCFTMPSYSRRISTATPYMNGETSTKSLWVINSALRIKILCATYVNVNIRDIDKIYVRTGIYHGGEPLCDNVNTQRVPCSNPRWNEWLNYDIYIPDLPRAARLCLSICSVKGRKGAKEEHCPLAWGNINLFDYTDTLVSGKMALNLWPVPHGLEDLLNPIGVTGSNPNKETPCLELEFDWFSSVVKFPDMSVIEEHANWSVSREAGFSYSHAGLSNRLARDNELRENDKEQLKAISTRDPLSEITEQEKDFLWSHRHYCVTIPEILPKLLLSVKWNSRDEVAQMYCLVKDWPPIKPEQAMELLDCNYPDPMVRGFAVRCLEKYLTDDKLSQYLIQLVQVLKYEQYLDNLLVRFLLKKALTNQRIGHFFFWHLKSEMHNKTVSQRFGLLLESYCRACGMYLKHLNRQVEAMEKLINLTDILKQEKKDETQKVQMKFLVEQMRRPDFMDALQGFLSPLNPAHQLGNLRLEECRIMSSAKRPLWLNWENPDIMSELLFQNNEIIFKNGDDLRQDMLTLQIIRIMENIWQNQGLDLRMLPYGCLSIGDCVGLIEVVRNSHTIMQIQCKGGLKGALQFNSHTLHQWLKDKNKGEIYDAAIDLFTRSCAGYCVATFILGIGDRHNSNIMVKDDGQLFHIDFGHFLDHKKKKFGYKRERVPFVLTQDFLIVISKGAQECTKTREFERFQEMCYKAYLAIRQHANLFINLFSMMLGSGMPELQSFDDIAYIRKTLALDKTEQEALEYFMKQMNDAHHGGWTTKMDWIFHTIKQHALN
Sequence of p110α/p85α (P27986 whole entry partner, species assumed): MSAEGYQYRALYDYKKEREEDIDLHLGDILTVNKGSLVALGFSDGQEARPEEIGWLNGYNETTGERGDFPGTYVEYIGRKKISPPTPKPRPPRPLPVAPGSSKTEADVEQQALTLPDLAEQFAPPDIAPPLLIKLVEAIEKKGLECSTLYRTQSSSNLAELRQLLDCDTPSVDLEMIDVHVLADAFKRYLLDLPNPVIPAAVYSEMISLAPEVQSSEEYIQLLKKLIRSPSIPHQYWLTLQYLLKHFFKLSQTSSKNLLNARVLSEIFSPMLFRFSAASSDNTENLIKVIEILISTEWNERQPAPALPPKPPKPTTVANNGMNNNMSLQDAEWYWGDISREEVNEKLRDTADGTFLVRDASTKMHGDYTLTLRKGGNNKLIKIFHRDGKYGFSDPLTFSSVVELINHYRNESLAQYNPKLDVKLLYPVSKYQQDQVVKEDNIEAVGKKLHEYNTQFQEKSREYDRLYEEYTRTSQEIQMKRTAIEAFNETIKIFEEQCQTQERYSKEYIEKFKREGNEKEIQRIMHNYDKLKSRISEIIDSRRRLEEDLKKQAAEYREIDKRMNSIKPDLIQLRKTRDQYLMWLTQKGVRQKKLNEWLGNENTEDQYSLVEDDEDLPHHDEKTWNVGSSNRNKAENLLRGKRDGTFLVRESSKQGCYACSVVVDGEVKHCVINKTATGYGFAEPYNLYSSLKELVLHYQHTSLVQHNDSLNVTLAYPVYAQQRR
Sequence of NEK11 (Q8NG66 whole entry): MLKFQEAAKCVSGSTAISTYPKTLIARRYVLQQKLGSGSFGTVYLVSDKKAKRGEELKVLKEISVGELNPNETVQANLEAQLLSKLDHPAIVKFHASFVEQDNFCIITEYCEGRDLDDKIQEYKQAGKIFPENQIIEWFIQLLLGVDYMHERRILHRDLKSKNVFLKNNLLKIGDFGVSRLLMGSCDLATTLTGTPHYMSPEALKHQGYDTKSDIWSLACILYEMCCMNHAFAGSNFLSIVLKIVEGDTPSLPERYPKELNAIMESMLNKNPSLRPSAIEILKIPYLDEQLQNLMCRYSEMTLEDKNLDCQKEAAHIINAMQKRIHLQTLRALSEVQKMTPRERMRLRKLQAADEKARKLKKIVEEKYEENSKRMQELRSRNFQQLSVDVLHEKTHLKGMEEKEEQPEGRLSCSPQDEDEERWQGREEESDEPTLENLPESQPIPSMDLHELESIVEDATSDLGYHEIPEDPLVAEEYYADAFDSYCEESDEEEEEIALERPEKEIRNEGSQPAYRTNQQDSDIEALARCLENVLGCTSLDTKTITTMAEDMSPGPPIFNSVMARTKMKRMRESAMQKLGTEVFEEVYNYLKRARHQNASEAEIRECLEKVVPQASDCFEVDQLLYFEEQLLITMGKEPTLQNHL

**Q.** How did the “ACC phosphorylation / AMPK activation” value (AMPK) turn out when `CN1C(=O)[C@@H](CC2CCCC2)N(C2CCCC2)c2nc(Nc3cc(Cl)c(O)c(Cl)c3)ncc21` [7a, (R)-8-cyclopentyl-7-(cyclopentylmethyl)-2-((3,5-dichloro-4-hydroxyphenyl)amino)-5-methyl-7,8-dihydropteridin-6(5H)-one] was run?
**A.** The value was “activated”.

**Q.** And the p38 phosphorylation (BT474 cells [1]; 20 μM)?
**A.** Its p38 phosphorylation is “increased”.

**Q.** And the “levels of cell-cycle inhibitors p21 and p27” value (BT474 cells [1]; BT474)?
**A.** The value was “increased levels”.

**Q.** What about the “mTORC1 activity (S6K phosphorylation)” value (BT474 cells [1]; BT474) of the same molecule?
**A.** The value was “less S6K phosphorylation”.

**Q.** And the “AMPK activation (phosphorylation of ACC and raptor)” value (BT474 cells [1]; BT474, 0, 10 and 20 μM)?
**A.** The value was “activated”.

**Q.** What about the AMPK activation (BT474 cells [1]; BT474, absence of serum) of the same molecule?
**A.** Its AMPK activation is “caused AMPK activation”.

**Q.** What about the AMPK activation (BT474 cells [1]; BT474, with serum, 32° C.) of the same molecule?
**A.** Its AMPK activation is “no longer caused AMPK activation”.

**Q.** And the AMPK activation (BT474 cells [1]; BT474, with serum, 37° C.)?
**A.** Its AMPK activation is “activated”.

**Q.** What about the “basal and insulin-induced phosphorylation of S6K at Thr-389” value (C2Cl2 myotubes [2]) of the same molecule?
**A.** The value was “reduced”.

**Q.** And the “phosphorylation of acetyl-CoA carboxylase (ACC)” value (C2Cl2 myotubes [2]; C2Cl2 myotubes, dose-dependent)?
**A.** The value was “significantly increased”.

**Q.** And the “IRS phosphorylation at Ser-302” value (C2Cl2 myotubes [2]; FIG. 3D)?
**A.** The value was “reduced”.

**Q.** And the Akt phosphorylation (C2Cl2 myotubes [2]; FIG. 3D, comparison 7a vs rapamycin)?
**A.** Its Akt phosphorylation is “more pronounced effect”.

**Q.** What about the “hormone-induced Akt phosphorylation, especially at Ser-473” value (C2Cl2 myotubes [2]; overnight incubation with 20 μM) of the same molecule?
**A.** Its value is “increased”.

**Q.** What about the remaining activity at 0.5 µM (c-MER) of the same molecule?
**A.** Its remaining activity at 0.5 µM is 67%.

**Q.** And the “inhibition of mTOR/FRAP1 in vitro” value (mTOR/FRAP1)?
**A.** The value was “did not inhibit”.

**Q.** What about the pKi (RSK2 [3]) of the same molecule?
**A.** The pKi was ~6.00.

**Q.** And the “calculated RSK2 activity, % of DMSO control” value (RSK2 [3]; calculated for 0.5 μM 7a and 20 μM ATP)?
**A.** The value was 79%.

**Q.** What about the pKi (PI4P5Kα) of the same molecule?
**A.** The pKi was ~5.30.

**Q.** What about the remaining activity at 0.5 µM (PI4P5Kα; read-out: PI4P5Kα activity remaining) of the same molecule?
**A.** The remaining activity at 0.5 µM was 95%.

**Q.** What about the remaining activity at 0.5 µM (PLK2) of the same molecule?
**A.** The remaining activity at 0.5 µM was 75%.

**Q.** What about the “inhibition of Vps34” value (Vps34) of the same molecule?
**A.** Its value is “not inhibited”.

**Q.** What about the “inhibition of other lipid kinases of the panel” value [4] of the same molecule?
**A.** The value was “did not inhibit most PI3Ks, PI4Ks or sphingosine kinases”.

**Q.** And the cell cycle distribution (BT474 cells [5])?
**A.** The cell cycle distribution was “accumulation of cells in the G0/G1 phase”.

**Q.** What about the “phosphorylation of acetyl-CoA carboxylase (ACC)” value (L6 myotubes) of the same molecule?
**A.** The value was “significantly increased”.

**Q.** And the remaining activity at 0.5 µM (Plk1 [6])?
**A.** Its remaining activity at 0.5 µM is 97%.

**Q.** What about the remaining activity at 0.5 µM (RSK2 [7]) of the same molecule?
**A.** The remaining activity at 0.5 µM was 83%.

**Q.** What about the cell death (MCF10A p53(−/−) cells) of the same molecule?
**A.** Its cell death is “selectively kills p53(−/−) cells”.

**Q.** And the ADP concentration (C2Cl2 myotubes [8])?
**A.** Its ADP concentration is “unchanged”.

**Q.** And the “reduction of intracellular ATP level” value (C2Cl2 myotubes [8]; bioluminescence assay or HPLC, compound overnight)?
**A.** Its value is 15%.

**Q.** And the “increase in AMP concentration” value (C2Cl2 myotubes [8]; triple quadrupole LC-MS/MS)?
**A.** Its value is 30%.

**Q.** What about the remaining activity at 0.5 µM (EIF2AK3) of the same molecule?
**A.** The remaining activity at 0.5 µM was 50%.

**Q.** And the “inhibition of p110α/p85α” value (p110α/p85α)?
**A.** The value was “not inhibited”.

**Q.** What about the remaining activity at 0.5 µM (PI4P5Kγ) of the same molecule?
**A.** Its remaining activity at 0.5 µM is 98%.

**Q.** And the AMPK activation (MCF7 cells; MCF7, absence of serum)?
**A.** Its AMPK activation is “caused AMPK activation”.

**Q.** And the AMPK activation (MCF7 cells; MCF7, with serum)?
**A.** The AMPK activation was “no longer caused AMPK activation”.

**Q.** And the remaining activity at 0.5 µM (NEK1)?
**A.** Its remaining activity at 0.5 µM is 67%.

**Q.** What about the remaining activity at 0.5 µM (NEK11) of the same molecule?
**A.** The remaining activity at 0.5 µM was 66%.

**Q.** What about the “inhibition of Plk1” value (Plk1 [9]) of the same molecule?
**A.** The value was “no longer inhibited”.
